The text below walks through data of the METLIN SMRT retention time set (Domingo-Almenara et al. 2019).

This data set can be described thus: gradient 5% acetonitrile 3 min, to 50% in 2 min, to 85% in 15 min, held 3 min, 100 µL/min. Particulars: column: Zorbax Extend-C18 2.1 x 50 mm; eluents: water / acetonitrile, 0.1% formic acid. In short, it runs like this: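 In both positive and negative ionization mode, a quadrupole time-of-flight mass spectrometer coupled to HPLC analyzed pure standards run in mixtures of ~100 molecules. The Zorbax Extend-C18 column (2.1 × 50 mm, 1.8 μm) was operated at 100 μL/min with water and acetonitrile, each containing 0.1% formic acid. The dead volume was 40 μL and the dwell volume 900 μL. Retention time came from adduct peaks that were computationally picked and individually inspected by hand.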
Molecule `Cc1ccc2nc(C)c(NC(=O)c3ccccc3C(F)(F)F)c(=O)n2c1` came in with an RP-LC retention time of 620 s.
In the case of `COc1ccc(S(=O)(=O)N2CCc3c(c(CN(C(C)=O)c4ccccc4)nn3C)C2)cc1Cl`, the RP-LC retention time turned out to be 846 s.
The molecule `CCC(C)NC(=O)C1CC(=O)N(c2ccc3c(c2)CCN3C(C)=O)C1` (stereo not given) came in with an RP-LC retention time of 630 s.
`COc1ccc(-c2ncc3c(n2)CCN(C(=O)Cc2ccccc2Cl)C3)cc1` showed an RP-LC retention time of 989 s.
Molecule `CNC(=O)Cc1ccc(NC(=O)NC2CCCCC2)cc1` had an RP-LC retention time of 642 s.
As to `Cc1ccc(S(=O)(=O)N2C(=O)CCC2C(=O)NC2CCCCCC2)cc1C` (stereo not given), the RP-LC retention time was 1010 s.
The molecule `Cc1ccc(NC(=O)N2CC(n3ccnc3C(C)C)C2)cc1C` gave an RP-LC retention time of 642 s.
Under `CCOCC(=O)N1CCCC(c2nc(CNC(=O)C(C)C)cs2)C1` (stereo not given) stands 625 s; under `COc1cccc(NC(=O)Nc2ccc3nc4n(c(=O)c3c2)CCC4)c1`, 673 s; under `CCOC(=O)c1c(C)oc2nc(C)nc(NCCCN(C)c3ccccc3)c12`, 701 s.
The same measure for `Cn1cnc(S(=O)(=O)N2CCC(Cc3nncn3Cc3ccccc3)CC2)c1`: 618 s; for `O=C(Nc1ccc2nc3n(c(=O)c2c1)CCC3)Nc1ccccc1Br`: 726 s; for `Cc1cc(F)ccc1NC(=O)CCc1c(C)nn(-c2cc(N(C)C)ncn2)c1C`: 778 s.
The same measure for `O=C(Cn1nc2n(c1=O)CCCC2)Nc1ccc(C(F)(F)F)cc1`: 716 s; for `CCc1onc(C)c1C1CCCN1C(=O)Nc1cccc(OC)c1` (stereo not given): 791 s.
`COc1ccc(-c2cn3c(CC(=O)NC4CCCC4)csc3n2)cc1OC` registered an RP-LC retention time of 660 s.
The same measure for `CCCCCCOc1ccccc1C(N)=O`: 1040 s; for `Nc1ncnc(NC2CCCC2)c1[N+](=O)[O-]`: 679 s.
`CC(=O)N1CCCN(C2=NS(=O)(=O)C(c3ccc(C)cc3)=C2C)CC1` had an RP-LC retention time of 699 s.
The same measure for `CCN1CCN(c2cc(C(=O)O)c3cc(NS(=O)(=O)c4cc(F)ccc4F)ccc3n2)CC1`: 594 s; for `COc1cc(NC(=O)COc2cc(C)nc(N3CCN(c4ccccc4)CC3)n2)cc(OC)c1`: 821 s; for `COc1ccc(NC(=O)NCC(c2cccnc2)c2cn(C)c3ccccc23)c(OC)c1` (stereo not given): 697 s.
The same measure for `CC(C)(C)c1ccc(C(=O)Nc2ccc(S(N)(=O)=O)cc2)cc1`: 932 s.
The molecule `CC1CCCN(c2ccc(-c3csc(S(=O)(=O)N4CCCCC4)c3)nn2)C1` (stereo not given) displayed an RP-LC retention time of 817 s.
In turn, `COCCNC(=O)CSc1nc(-c2ccc(F)cc2)[nH]c1-c1ccccc1` showed an RP-LC retention time of 624 s.
For `CC(=O)c1ccc(NC(=O)C(C)Oc2cc(C(F)(F)F)c3c(C)nn(C)c3n2)cc1` (stereo not given), the RP-LC retention time is 968 s.
Under `Cc1nc(Nc2ccc(F)cn2)sc1C(=O)NCCCc1ccccc1` stands 883 s.
With `CCCC(=O)Nc1ccc(-n2cnc(C(=O)NC)c2)nc1`, the RP-LC retention time was determined as 598 s.
The same measure for `CCc1nnc(-c2ccc3ccn(CC(=O)NCc4ccccc4OC)c3c2)o1`: 851 s; for `Cn1nccc1-c1cccc(-c2noc(Cc3ccc(Cl)cc3)n2)c1`: 1130 s.
As to `O=[N+]([O-])c1cccc(-c2nc(N3CCCCCC3)c3ccccc3n2)c1`, the RP-LC retention time stood at 1030 s.
Under `Cc1cccc(Sc2nccnc2N2CCCC(C(=O)NC(C)c3ccccc3)C2)c1` (stereo not given) stands 1150 s; under `CC(C)CN1C(=O)c2cccn2CC1C(=O)NCc1ccc2c(c1)OCO2` (stereo not given), 676 s.
The same measure for `CCN1CCCN(C(=O)C2(c3ccc(OC)cc3)CC2)CC12CCOCC2`: 620 s; for `CC1CCc2[nH]nc(C(=O)NCC3CCCO3)c2C1` (stereo not given): 702 s; for `COc1ccc(NC(=O)N2CCc3cn(C)c4cccc(c34)C2)cc1OC`: 794 s.
The molecule `O=C(NCc1ccco1)c1ccc2c(c1)CCCN2C(=O)c1cccc(Cl)c1` returned an RP-LC retention time of 889 s.
Under `CCc1nn2c(CNS(=O)(=O)Cc3ccc(Cl)cc3)c(-c3ccccc3)nc2s1` stands 1020 s.
Under `CC(=O)N1c2ccc(S(=O)(=O)N3CCCC3)cc2CC1C(=O)NCCCN1CCCCC1` (stereo not given) stands 626 s; under `O=c1ccc(-c2ccc(F)cc2)nn1CCc1nc(-c2ccc(F)cc2)no1`, 712 s; under `Cc1nc(Nc2ccc(F)cn2)sc1C(=O)N1CCC(C(N)=O)(N2CCCCC2)CC1`, 590 s.
As to `CSc1cnc(Nc2nc(-c3ccc(Br)cc3)cs2)nc1`, the RP-LC retention time came out at 1190 s.
The same measure for `CC1CCN(C(=O)c2cc3c(s2)CCC(C(=O)NCCCN2CCOCC2)C3)CC1` (stereo not given): 542 s; for `CCOc1ccc(-c2cn3ccn(-c4ccc(C)cc4C)c(=O)c3n2)cc1`: 921 s; for `CC(C)c1ccc(S(=O)(=O)N2CCC3(CCN(c4cccnc4)C3)C2)cc1` (stereo not given): 736 s.
The same measure for `Cc1cc(C)cc(C(=O)N2CCCC(C(=O)NC3CCCCCCC3)C2)c1` (stereo not given): 1040 s.
Under `COc1ccc(NC(=O)N(Cc2nnc3n2CCCCC3)c2ccc(OC)cc2)cc1` stands 631 s.
Take `CC1CCCCN1C(=O)Cn1c(CCO)nc2ccccc21` (stereo not given): the RP-LC retention time amounted to 583 s.
`COc1ccc(NC(=O)c2cc3c(=O)n(CC(C)C)c4ccccc4n3n2)cc1F`: the RP-LC retention time turned out to be 1070 s.
The same measure for `CSc1ccc(CNC(=O)c2c(C)oc3ccn(Cc4cccc(F)c4)c(=O)c23)cc1`: 1110 s.
`Cc1cc(-c2c(C)sc(C)c2S(=O)(=O)Nc2cccc(Cl)c2)n[nH]1` came in with an RP-LC retention time of 1110 s.
The same measure for `CN1CCN(CCNC(=O)CSCc2nc3cccnc3n2C2CCCCC2)CC1`: 600 s; for `COc1ccc(S(=O)(=O)N2[C@H]3CC[C@@H]2c2cncnc2C3)cc1`: 715 s.
The same measure for `Cc1nc2cc(-c3noc(CCc4c[nH]c5ccccc45)n3)ccc2o1`: 1020 s; for `CCOc1ccccc1CNC(=O)Cc1csc2nc(-c3ccccc3)cn12`: 830 s.
Consider `Cc1ccc(C)c(-c2csc(NC(=O)c3cccs3)n2)c1`, for which the RP-LC retention time was 1040 s.
Regarding `COC(=O)c1cnn(-c2ccc(C(=O)N3CCc4ccccc43)cc2)c1N`, the RP-LC retention time turned out to be 768 s.
Molecule `Cc1ccc(-c2cc3c(=O)n(Cc4nc(-c5ccccn5)no4)ccn3n2)cc1C` had an RP-LC retention time of 909 s.
For the molecule `CCOC(=O)c1noc2ncnc(N3CCc4cc(OC)c(OC)cc4C3C)c12` (stereo not given), the RP-LC retention time was 1000 s.
`O=C(Nc1ccc2c(c1)CCC(=O)N2Cc1ccccc1)c1ccccc1C(F)(F)F` came in with an RP-LC retention time of 855 s.
Under `NCCC1CCN(C(=O)Nc2ccccc2)CC1` stands 577 s.
The same measure for `COc1cc(C)c(C)cc1S(=O)(=O)Nc1ccc2c(c1)N(S(C)(=O)=O)CCC2`: 844 s; for `CCCN(C)S(=O)(=O)c1cc(-c2nc(C(C)(C)C)cs2)cs1`: 1330 s; for `O=C(NCc1cccc(C(F)(F)F)c1)c1ccnc(N2CCCCC2)n1`: 1140 s.
On to `CC(C)NC(=O)c1ccc(OCC2CCN(C(=O)Cc3ccc(F)cc3)CC2)cc1`, for which the RP-LC retention time came to 860 s.
The same measure for `Cc1sc(-c2cc(C(F)(F)F)on2)cc1S(=O)(=O)Nc1ccccc1`: 1130 s.
Under `CCc1ccccc1NC(=O)Cn1c(C)nc2c(sc3nc(-c4ccccc4)ccc32)c1=O` stands 1080 s; under `CCC(C)NC(=O)N1C[C@@H]2CN(S(=O)(=O)c3ccc(F)cc3)C[C@H](C1)O2` (stereo not given in full), 731 s; under `CS(=O)(=O)Nc1ccc(-c2noc(CN3C(=O)COc4ccc(Cl)cc43)n2)cc1`, 879 s.
With `COC(=O)c1ccc2c(=O)n(-c3ccc(OC)cc3)c(N3CCOCC3)nc2c1`, the RP-LC retention time came out at 896 s.
For the molecule `CCn1c(SC)nnc1-c1nn(C)c2c1CN(C(=O)c1ccc(F)cc1)CC2`, the RP-LC retention time came out at 763 s.
The same measure for `Cc1ccc(CN2CCN(C(=O)c3cccc4[nH]cc(CN5CCSCC5)c34)CC2)cc1`: 593 s.
`Cc1cc(S(=O)(=O)N(C)CC2CCOCC2)ccc1F`: the RP-LC retention time amounted to 879 s.
For `COc1cccc(-c2c(C(=O)O)nnn2-c2ccc(OC)c(OC)c2)c1`, the RP-LC retention time was 715 s.
Under `Cc1csc(-c2cc(S(=O)(=O)Nc3ccc(F)cc3F)cn2CC(=O)N2CCCC2)n1` stands 880 s; under `CCOC(=O)c1[nH]c(C)c(C(=O)NCCN(C)C)c1C`, 571 s; under `COc1ccc(C2C(C(=O)Nc3cccc(C)n3)c3ccccc3C(=O)N2C)cc1` (stereo not given), 791 s.
`Cc1c(Cl)cccc1S(=O)(=O)N1CCc2c(c(-c3nnc(-c4ccc(F)cc4)o3)nn2C)C1`: the RP-LC retention time came out at 1090 s.
In turn, `CCCCOc1cccc(C(=O)N(Cc2ccc(Br)o2)C2CCS(=O)(=O)C2)c1` (stereo not given) returned an RP-LC retention time of 1090 s.
For `Cn1nc(CO)c2c1CCN(C(=O)c1cc(-c3cccs3)[nH]n1)C2`, the RP-LC retention time was found to be 602 s.
